In brackets after ≈: the same amount, converted by molar mass.
Assays:
[1] = In vitro metabolism in human liver microsomes; details: for half-life: human, microsomes
Method: (§1) The target product profile seeks to deliver JNK inhibitor as a once daily oral administration. To prioritize compounds for further development, in vitro metabolism of several CDD JNK inhibitors were determined to approximate the plasma half-life and the rate of metabolism of the compounds in vivo.

[2] = In vitro metabolism in mouse liver microsomes; details: for half-life: mouse, microsomes
Method: as §1

JNK1 [3] = molecular target: T1, JNK1 (Homo sapiens, UniProt P45983); assay: JNK1 kinase (intrinsic ATPase, Kinase-Glo) assay; type: biochemical; details: for Ki: Table 3b, read-out: Ki(app) JNK1
T1 sequence (P45983 whole entry): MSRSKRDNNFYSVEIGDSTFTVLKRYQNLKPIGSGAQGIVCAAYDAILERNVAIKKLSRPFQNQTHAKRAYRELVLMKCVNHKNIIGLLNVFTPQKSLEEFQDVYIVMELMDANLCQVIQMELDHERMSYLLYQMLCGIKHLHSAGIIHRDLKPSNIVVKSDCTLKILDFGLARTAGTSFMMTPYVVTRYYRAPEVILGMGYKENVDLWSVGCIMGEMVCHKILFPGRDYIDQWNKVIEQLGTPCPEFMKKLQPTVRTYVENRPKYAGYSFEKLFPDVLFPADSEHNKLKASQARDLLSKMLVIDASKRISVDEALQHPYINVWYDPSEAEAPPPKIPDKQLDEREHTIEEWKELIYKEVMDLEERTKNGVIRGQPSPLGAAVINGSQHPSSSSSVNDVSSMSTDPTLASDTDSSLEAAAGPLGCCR
Method: JNK1, JNK2, and JNK3 hydrolyze ATP to ADP without any peptide substrates. This allows a very robust and fast endpoint assay where the remaining concentration of ATP is measured (BMG ClarioStar Plus plate reader) using the Kinase-Glo Assay kit from Promega (V6711). A luminescence signal is measured, which is produced by the catalytic conversion of beetle luciferin to oxyluciferin by luciferase. Potential inhibition of luciferase (i.e., false negatives) is easily detected, because assays without kinase are always included, and less ATP than is present in this control reaction could also indicate an inhibition of luciferase, which can be excluded by a counter screen with only luciferase.
To mitigate violation of the linear initial velocity principle, which is a problem in end-point assays when doing dose-responses, the enzyme concentration was carefully optimized, in a total assay volume of 25 μL. […] The kinase reaction was done for 30 or 60 min at 30° C., and detection of leftover ATP was measured according to Promega's protocol. […] Fractional activities were obtained from normalized data. Non-linear regression (GraphPad Prism7) and a modified Morrison equation for tight binding was used to determine apparent Ki values for inhibitors, assuming no particular mode of inhibition. An orthogonal binding assay (LanthaScreen) was outsourced to ThermoFisher Scientific's SelectScreen Services to determine IC50 values.

JNK1 [4] = molecular target: T1, JNK1; assay: Promega NanoBRET intracellular target engagement (tracer K10 displacement), JNK1; type: cell-based
JNK2 [5] = molecular target: T2, JNK2 (Homo sapiens, UniProt P45984); assay: Promega NanoBRET intracellular target engagement (tracer K10 displacement), JNK2; type: cell-based
T2 sequence (P45984 whole entry): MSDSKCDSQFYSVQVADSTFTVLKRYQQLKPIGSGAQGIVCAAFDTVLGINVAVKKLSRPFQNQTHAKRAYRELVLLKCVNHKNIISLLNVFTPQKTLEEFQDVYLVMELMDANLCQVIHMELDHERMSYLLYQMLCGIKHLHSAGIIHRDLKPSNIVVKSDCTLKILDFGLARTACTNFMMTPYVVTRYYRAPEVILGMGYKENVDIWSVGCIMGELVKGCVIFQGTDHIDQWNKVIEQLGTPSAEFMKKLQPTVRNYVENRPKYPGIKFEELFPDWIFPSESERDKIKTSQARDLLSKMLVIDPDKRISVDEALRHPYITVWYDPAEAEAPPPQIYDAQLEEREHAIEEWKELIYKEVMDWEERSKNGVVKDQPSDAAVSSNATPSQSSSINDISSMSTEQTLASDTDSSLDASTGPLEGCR

JNK3 = JNK3 (Homo sapiens, UniProt P53779); assay: JNK3 kinase (intrinsic ATPase, Kinase-Glo) assay; type: biochemical; details: for Kd: Table 3a, read-out: Kd JNK3
JNK3, sequence (P53779 whole entry): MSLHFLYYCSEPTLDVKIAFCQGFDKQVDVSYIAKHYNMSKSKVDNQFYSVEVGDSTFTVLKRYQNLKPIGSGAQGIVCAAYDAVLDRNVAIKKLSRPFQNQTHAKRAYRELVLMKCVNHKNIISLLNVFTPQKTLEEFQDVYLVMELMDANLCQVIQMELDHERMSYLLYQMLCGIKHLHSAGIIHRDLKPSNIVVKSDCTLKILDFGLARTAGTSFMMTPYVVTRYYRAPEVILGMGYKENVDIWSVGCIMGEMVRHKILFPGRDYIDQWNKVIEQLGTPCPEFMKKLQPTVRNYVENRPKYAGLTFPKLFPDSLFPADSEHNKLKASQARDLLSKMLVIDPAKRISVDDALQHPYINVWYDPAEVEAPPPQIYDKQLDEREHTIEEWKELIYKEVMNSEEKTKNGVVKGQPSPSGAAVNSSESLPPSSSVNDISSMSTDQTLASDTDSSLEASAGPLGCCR

JNK2 [6] = molecular target: T2, JNK2; assay: JNK2 kinase (intrinsic ATPase, Kinase-Glo) assay; type: biochemical; details: for Kd: Table 3a, read-out: Kd JNK2

| SMILES | Predicted half-life, HLM t1/2 [1] [h] | Predicted half-life, MLM t1/2 [2] [h] | Ki (JNK1 [3]) [nM] | IC50 (JNK1 [4]) [nM] | IC50 (JNK2 [5]) [nM] | half-life [1] [h] | Kd (JNK1 [3]) [nM] | Kd (JNK3) [nM] | half-life [2] [h] | Kd (JNK2 [6]) [nM] | solubility (Solubility) [µM] | Ki (JNK3) [nM] | Ki (JNK2 [6]) [nM] |
| --- | --- | --- | --- | --- | --- | --- | --- | --- | --- | --- | --- | --- | --- |
| Cc1nnc2n1-c1ccc(Cl)cc1C(c1ccccc1)=NC2 [Alprazolam, reference compound] | 12.63 | 3.975 |  |  |  |  |  |  |  |  |  |  |  |
| CNC(=O)CN1[C@H](CC(=O)NCCCN(C)c2ccc(F)cc2)CNC[C@H]1C [CDD-2272, N-(3-((4-fluorophenyl)(methyl)amino)propyl)-2-((2R,6R)-6-methyl-1-(2-(methylamino)-2-oxoethyl)piperazin-2-yl)acetamide] |  |  | 860 | 60000 | 58000 |  |  |  |  |  |  |  |  |
| CNC(=O)c1ccc(NC(=O)c2ccn3ncc(-c4cnc5[nH]ccc5c4)c3c2)cc1 [CDD-2461, N-(4-(methylcarbamoyl)phenyl)-3-(1H-pyrrolo[2,3-b]pyridin-5-yl)pyrazolo[1,5-a]pyridine-5-carboxamide] |  |  |  | 49500 | 5300 | 1.19 | 0.2 ± 0.18 | 0.33 ± 0.03 | 0.513 | 0.32 ± 0.12 | 1.8 (≈ 0.739 µg/mL) |  |  |
| O=C(Nc1ccc(C(F)(F)F)cc1)c1ccn2ncc(-c3cnc4[nH]ccc4c3)c2c1 [CDD-2483, 3-(1H-pyrrolo[2,3-b]pyridin-5-yl)-N-(4-(trifluoromethyl)phenyl)pyrazolo[1,5-a]pyridine-5-carboxamide] |  |  |  |  |  |  |  |  |  |  | 0.6 (≈ 0.253 µg/mL) | 167 | 339 |
| O=C(Nc1ccccc1)c1ccn2ncc(-c3cnc4[nH]ccc4c3)c2c1 [CDD-2485, N-phenyl-3-(1H-pyrrolo[2,3-b]pyridin-5-yl)pyrazolo[1,5-a]pyridine-5-carboxamide] |  |  |  |  |  |  | 0.12 ± 0.09 | 0.73 ± 0.02 |  | 0.95 ± 0.16 |  |  |  |
| COc1ccc(NC(=O)c2cc3c(-c4cnc5[nH]ccc5c4)cccc3s2)cc1 [CDD-2629, N-(4-methoxyphenyl)-4-(1H-pyrrolo[2,3-b]pyridin-5-yl)benzo[b]thiophene-2-carboxamide] |  |  |  |  |  |  | 7.8 ± 1.4 | 9.9 ± 1.3 |  | 15.4 ± 1.4 |  |  |  |
| O=C(Nc1ccccc1)c1cc2c(-c3cnc4[nH]ccc4c3)cccc2s1 [CDD-2631, N-phenyl-4-(1H-pyrrolo[2,3-b]pyridin-5-yl)benzo[b]thiophene-2-carboxamide] |  |  |  |  |  |  | 5.9 ± 1.1 | 12.7 ± 1.2 |  | 27.8 ± 3.6 |  |  |  |
| CN(C)C(=O)c1cccc(NC(=O)c2cc3c(-c4cnc5[nH]ccc5c4)cccc3s2)c1 [CDD-2632, N-(3-(dimethylcarbamoyl)phenyl)-4-(1H-pyrrolo[2,3-b]pyridin-5-yl)benzo[b]thiophene-2-carboxamide] |  |  |  |  |  |  | 4.91 ± 0.9 | 5.82 ± 0.92 |  | 3.5 ± 1.4 | 0.6 (≈ 0.264 µg/mL) |  |  |
| CN(C)C(=O)c1cc(NC(=O)c2cc3c(-c4cnc5[nH]ccc5c4)cccc3s2)ccc1F [CDD-2730, N-(3-(dimethylcarbamoyl)-4-fluorophenyl)-4-(1H-pyrrolo[2,3-b]pyridin-5-yl)benzo[b]thiophene-2-carboxamide] |  |  |  |  |  |  | 0.58 ± 0.08 | 1.86 ± 0.18 |  | 5.33 ± 0.52 | 0.3 (≈ 0.138 µg/mL) |  |  |
| CN(C)C(=O)c1cc(NC(=O)c2cc3c(-c4cnc5[nH]ccc5c4)cccc3s2)ccc1C(F)(F)F [CDD-2732, N-(3-(dimethylcarbamoyl)-4-(trifluoromethyl)phenyl)-4-(1H-pyrrolo[2,3-b]pyridin-5-yl)benzo[b]thiophene-2-carboxamide] |  |  |  |  |  |  | 14.3 ± 1.6 | 24.3 ± 1.9 |  | 67 ± 11 |  |  |  |
| CN(C)C(=O)c1cc(NC(=O)c2cc3c(-c4cnc5[nH]ccc5c4)cccc3s2)ccc1OC(F)(F)F [CDD-2857, N-(3-(dimethylcarbamoyl)-4-(trifluoromethoxy)phenyl)-4-(1H-pyrrolo[2,3-b]pyridin-5-yl)benzo[b]thiophene-2-carboxamide] |  |  |  |  |  | 2.88 | 11.3 ± 3.4 | 15.7 ± 1.2 | 1.42 | 49.8 ± 9.7 |  |  |  |
| CN(C)C(=O)c1cc(NC(=O)c2ccc3ncc(-c4cnc5[nH]ccc5c4)n3c2)ccc1O [CDD-3016] |  |  |  |  |  | 4.88 | 0.65 ± 0.15 | 1.48 ± 0.14 | 5.3 | 5.77 ± 0.8 | 9.7 (≈ 4.27 µg/mL) |  |  |
| CN(C)CCNC(=O)c1cc2c(-c3cnc4[nH]ccc4c3)cccc2s1 [CDD-3085, N-(2-(dimethylamino)ethyl)-4-(1H-pyrrolo[2,3-b]pyridin-5-yl)benzo[b]thiophene-2-carboxamide] |  |  |  |  |  | 7.5 | 13.1 ± 1.2 | 30.3 ± 2.7 | 1.17 | 42.8 ± 8.3 | 170 (≈ 62 µg/mL) |  |  |
| CN(C)CCNC(=O)c1cc(NC(=O)c2cc3c(-c4cnc5[nH]ccc5c4)cccc3s2)ccc1O [CDD-3086, N-(3-((2-(dimethylamino)ethyl)carbamoyl)-4-hydroxyphenyl)-4-(1H-pyrrolo[2,3-b]pyridin-5-yl)benzo[b]thiophene-2-carboxamide] |  |  |  |  |  | 1.68 | 0.67 ± 0.14 | 5.21 ± 0.46 | 1.5 | 5.98 ± 0.42 | 2 (≈ 0.999 µg/mL) |  |  |
| CNC(=O)c1cc(NC(=O)c2cc3c(-c4cnc5[nH]ccc5c4)cccc3s2)ccc1O [CDD-3087, N-(4-hydroxy-3-(methylcarbamoyl)phenyl)-4-(1H-pyrrolo[2,3-b]pyridin-5-yl)benzo[b]thiophene-2-carboxamide] |  |  |  |  |  | 1.97 | 1.96 ± 0.53 | 4.54 ± 0.5 | 1.28 | 11.4 ± 0.81 | 0.4 (≈ 0.177 µg/mL) |  |  |
| CN(C)C(=O)c1cc(NC(=O)c2cc3c(-c4cnc5[nH]ccc5c4)cncc3s2)ccc1O [CDD-3111, N-(3-(dimethylcarbamoyl)-4-hydroxyphenyl)-4-(1H-pyrrolo[2,3-b]pyridin-5-yl)thieno[2,3-c]pyridine-2-carboxamide] |  |  |  |  |  | 2.22 | 0.07 ± 0.05 | 0.32 ± 0.04 | 2.07 | 0.73 ± 0.1 | 3.8 (≈ 1.74 µg/mL) |  |  |
| O=C(Nc1ccc(O)c(C(=O)NC2COC2)c1)c1cc2c(-c3cnc4[nH]ccc4c3)cccc2s1 [CDD-3112, N-(4-hydroxy-3-(oxetan-3-ylcarbamoyl)phenyl)-4-(1H-pyrrolo[2,3-b]pyridin-5-yl)benzo[b]thiophene-2-carboxamide] |  |  |  |  |  | 1.65 | 2.84 ± 0.49 | 6.4 ± 0.6 | 2.83 | 13.5 ± 0.8 | 1.6 (≈ 0.775 µg/mL) |  |  |
| O=C(Nc1ccc(O)c(C(=O)NCC2CC2)c1)c1cc2c(-c3cnc4[nH]ccc4c3)cccc2s1 [CDD-3113, N-(3-((cyclopropylmethyl)carbamoyl)-4-hydroxyphenyl)-4-(1H-pyrrolo[2,3-b]pyridin-5-yl)benzo[b]thiophene-2-carboxamide] |  |  |  |  |  | 4.8 | 10.4 ± 1.4 | 10.9 ± 0.7 | 3.15 | 40.7 ± 5.5 |  |  |  |
| O=C(Nc1ccc2c(c1)C(=O)NC2)c1cc2c(-c3cnc4[nH]ccc4c3)cccc2s1 [CDD-3115, N-(3-oxoisoindolin-5-yl)-4-(1H-pyrrolo[2,3-b]pyridin-5-yl)benzo[b]thiophene-2-carboxamide] |  |  |  |  |  | 14.8 | 1.5 ± 0.2 | 4.6 ± 0.7 | 1.43 | 6.3 ± 0.6 | 1.4 (≈ 0.594 µg/mL) |  |  |
| O=C(c1cc2c(-c3cnc4[nH]ccc4c3)cccc2s1)N1CCN(c2ccccc2)C(=O)C1 [CDD-3116, 4-(4-(1H-pyrrolo[2,3-b]pyridin-5-yl)benzo[b]thiophene-2-carbonyl)-1-phenylpiperazin-2-one] |  |  |  |  |  | 0.8 | 54.5 ± 5.4 | 114 ± 7 | 0.567 | 447 ± 65 | 4.2 (≈ 1.9 µg/mL) |  |  |
| CCN(CC)Cc1cc(NC(=O)c2cc3c(-c4cnc5[nH]ccc5c4)cccc3s2)ccc1O [CDD-3117, N-(3-((diethylamino)methyl)-4-hydroxyphenyl)-4-(1H-pyrrolo[2,3-b]pyridin-5-yl)benzo[b]thiophene-2-carboxamide] |  |  |  |  |  | 0.517 | 0.9 ± 0.2 | 2.9 ± 0.4 | 1.9 | 2.1 ± 0.3 | 3.4 (≈ 1.6 µg/mL) |  |  |
| N#Cc1cc(NC(=O)c2cc3c(-c4cnc5[nH]ccc5c4)cccc3s2)ccc1O [CDD-3126, N-(3-cyano-4-hydroxyphenyl)-4-(1H-pyrrolo[2,3-b]pyridin-5-yl)benzo[b]thiophene-2-carboxamide] |  |  | 30 |  |  | 5.4 |  |  | 2.4 |  | > 200 |  |  |
| Cc1sc2c(c1C)C(c1ccc(Cl)cc1)=N[C@@H](CC(=O)OC(C)(C)C)c1nnc(C)n1-2 [JQ1, reference compound] | 0.275 | 0.193 |  |  |  |  |  |  |  |  |  |  |  |

Reference: US20260294922A1, “Inhibitors of JUN N-Terminal Kinases (JNK1, JNK2, and/or JNK3) and Mitogen-Activated Protein Kinases (MAPK8, MAPK9, and/or MAPK10) and Methods of Using Same” (Baylor College of Medicine, priority 2023, published 2026)
